{"source": "paper PMC9841527", "about": "(Journal of Medicinal Chemistry, 2022)", "key": {"CamA [1]": {"target": "T1, CamA (Clostridioides difficile, UniProt Q183J3)", "T1 sequence (Q183J3 1-577)": "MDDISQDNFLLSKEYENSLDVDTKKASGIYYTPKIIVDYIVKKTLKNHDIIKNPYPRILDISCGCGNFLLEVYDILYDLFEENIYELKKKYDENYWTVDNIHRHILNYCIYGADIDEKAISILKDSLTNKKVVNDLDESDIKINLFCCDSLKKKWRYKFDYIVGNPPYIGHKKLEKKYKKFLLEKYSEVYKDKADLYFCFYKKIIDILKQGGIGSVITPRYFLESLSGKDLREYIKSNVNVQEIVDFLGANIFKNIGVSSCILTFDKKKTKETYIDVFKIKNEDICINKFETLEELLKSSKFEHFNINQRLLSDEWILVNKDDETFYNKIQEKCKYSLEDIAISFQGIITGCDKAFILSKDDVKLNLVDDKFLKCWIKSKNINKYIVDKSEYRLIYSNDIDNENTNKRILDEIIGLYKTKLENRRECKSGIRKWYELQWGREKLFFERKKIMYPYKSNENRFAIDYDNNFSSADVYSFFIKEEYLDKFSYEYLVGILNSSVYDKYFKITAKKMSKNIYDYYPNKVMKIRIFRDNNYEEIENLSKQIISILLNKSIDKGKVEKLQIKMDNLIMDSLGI", "assay": "Isothermal titration calorimetry", "type": "binding"}, "CamA [2]": {"target": "T1, CamA", "type": "biochemical"}, "[3]": {"target": "T2, A1 adenosine receptor (A1AR) (Homo sapiens, UniProt P30542)", "T2 sequence (P30542 1-326)": "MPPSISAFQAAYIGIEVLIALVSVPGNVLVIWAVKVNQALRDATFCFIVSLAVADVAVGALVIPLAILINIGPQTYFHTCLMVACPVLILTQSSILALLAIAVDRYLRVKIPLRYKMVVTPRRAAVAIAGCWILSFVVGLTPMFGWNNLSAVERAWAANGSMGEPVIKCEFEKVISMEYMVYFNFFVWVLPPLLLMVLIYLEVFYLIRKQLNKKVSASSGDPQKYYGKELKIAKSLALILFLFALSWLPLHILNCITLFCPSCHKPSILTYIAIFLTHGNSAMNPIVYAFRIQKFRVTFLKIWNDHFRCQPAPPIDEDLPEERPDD", "assay": "A1AR agonist radioligand binding assay", "conditions": "compound 10 μM, [3H]CCPA 1 nM, transfected CHO cell membranes"}, "DOT1L": {"target": "DOT1L (Homo sapiens, UniProt Q8TEK3)", "sequence (Q8TEK3 whole entry)": "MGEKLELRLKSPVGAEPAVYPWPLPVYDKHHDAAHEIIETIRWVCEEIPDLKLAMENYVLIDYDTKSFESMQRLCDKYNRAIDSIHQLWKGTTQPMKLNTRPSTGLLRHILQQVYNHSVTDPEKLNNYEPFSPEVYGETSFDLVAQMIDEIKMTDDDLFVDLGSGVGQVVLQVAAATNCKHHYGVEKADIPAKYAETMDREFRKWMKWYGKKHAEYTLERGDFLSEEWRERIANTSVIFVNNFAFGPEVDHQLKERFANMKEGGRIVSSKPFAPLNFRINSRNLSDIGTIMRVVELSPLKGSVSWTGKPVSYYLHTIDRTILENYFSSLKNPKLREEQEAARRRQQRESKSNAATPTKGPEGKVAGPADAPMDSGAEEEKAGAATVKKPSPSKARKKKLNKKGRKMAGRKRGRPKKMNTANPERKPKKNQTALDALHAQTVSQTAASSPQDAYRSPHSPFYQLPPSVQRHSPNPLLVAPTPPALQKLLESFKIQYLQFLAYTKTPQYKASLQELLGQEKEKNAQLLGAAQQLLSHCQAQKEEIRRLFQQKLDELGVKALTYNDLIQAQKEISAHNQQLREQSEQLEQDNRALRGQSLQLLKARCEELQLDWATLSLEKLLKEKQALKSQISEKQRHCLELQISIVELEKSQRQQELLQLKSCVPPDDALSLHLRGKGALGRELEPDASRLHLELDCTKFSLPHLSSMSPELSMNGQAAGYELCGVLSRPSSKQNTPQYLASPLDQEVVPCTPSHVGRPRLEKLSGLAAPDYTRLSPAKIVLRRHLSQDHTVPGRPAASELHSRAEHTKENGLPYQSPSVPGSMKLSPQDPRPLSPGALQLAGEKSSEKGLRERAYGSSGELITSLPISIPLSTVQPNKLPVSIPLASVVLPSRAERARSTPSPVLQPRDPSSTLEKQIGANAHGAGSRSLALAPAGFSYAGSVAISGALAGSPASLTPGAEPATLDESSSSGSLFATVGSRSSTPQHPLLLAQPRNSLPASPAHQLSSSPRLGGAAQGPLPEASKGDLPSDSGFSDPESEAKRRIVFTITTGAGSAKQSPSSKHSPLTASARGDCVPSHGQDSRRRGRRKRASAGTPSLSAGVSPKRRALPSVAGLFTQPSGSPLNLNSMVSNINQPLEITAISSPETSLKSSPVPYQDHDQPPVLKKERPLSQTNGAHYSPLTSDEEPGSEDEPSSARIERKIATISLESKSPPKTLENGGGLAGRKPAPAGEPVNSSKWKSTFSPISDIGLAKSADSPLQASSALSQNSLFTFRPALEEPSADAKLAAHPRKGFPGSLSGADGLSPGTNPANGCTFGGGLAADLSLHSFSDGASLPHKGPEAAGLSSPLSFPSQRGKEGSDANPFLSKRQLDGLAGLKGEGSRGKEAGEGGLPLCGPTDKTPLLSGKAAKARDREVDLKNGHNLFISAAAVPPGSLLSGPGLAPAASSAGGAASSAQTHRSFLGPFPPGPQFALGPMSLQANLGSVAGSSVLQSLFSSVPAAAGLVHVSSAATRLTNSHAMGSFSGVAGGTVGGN", "assay": "Selectivity assay, DOT1L", "type": "biochemical", "conditions": "compound 10 μM, 3H-SAM 1 μM"}, "G9a": {"target": "T3, G9a (Homo sapiens, UniProt Q96KQ7)", "T3 sequence (Q96KQ7 1-1210)": "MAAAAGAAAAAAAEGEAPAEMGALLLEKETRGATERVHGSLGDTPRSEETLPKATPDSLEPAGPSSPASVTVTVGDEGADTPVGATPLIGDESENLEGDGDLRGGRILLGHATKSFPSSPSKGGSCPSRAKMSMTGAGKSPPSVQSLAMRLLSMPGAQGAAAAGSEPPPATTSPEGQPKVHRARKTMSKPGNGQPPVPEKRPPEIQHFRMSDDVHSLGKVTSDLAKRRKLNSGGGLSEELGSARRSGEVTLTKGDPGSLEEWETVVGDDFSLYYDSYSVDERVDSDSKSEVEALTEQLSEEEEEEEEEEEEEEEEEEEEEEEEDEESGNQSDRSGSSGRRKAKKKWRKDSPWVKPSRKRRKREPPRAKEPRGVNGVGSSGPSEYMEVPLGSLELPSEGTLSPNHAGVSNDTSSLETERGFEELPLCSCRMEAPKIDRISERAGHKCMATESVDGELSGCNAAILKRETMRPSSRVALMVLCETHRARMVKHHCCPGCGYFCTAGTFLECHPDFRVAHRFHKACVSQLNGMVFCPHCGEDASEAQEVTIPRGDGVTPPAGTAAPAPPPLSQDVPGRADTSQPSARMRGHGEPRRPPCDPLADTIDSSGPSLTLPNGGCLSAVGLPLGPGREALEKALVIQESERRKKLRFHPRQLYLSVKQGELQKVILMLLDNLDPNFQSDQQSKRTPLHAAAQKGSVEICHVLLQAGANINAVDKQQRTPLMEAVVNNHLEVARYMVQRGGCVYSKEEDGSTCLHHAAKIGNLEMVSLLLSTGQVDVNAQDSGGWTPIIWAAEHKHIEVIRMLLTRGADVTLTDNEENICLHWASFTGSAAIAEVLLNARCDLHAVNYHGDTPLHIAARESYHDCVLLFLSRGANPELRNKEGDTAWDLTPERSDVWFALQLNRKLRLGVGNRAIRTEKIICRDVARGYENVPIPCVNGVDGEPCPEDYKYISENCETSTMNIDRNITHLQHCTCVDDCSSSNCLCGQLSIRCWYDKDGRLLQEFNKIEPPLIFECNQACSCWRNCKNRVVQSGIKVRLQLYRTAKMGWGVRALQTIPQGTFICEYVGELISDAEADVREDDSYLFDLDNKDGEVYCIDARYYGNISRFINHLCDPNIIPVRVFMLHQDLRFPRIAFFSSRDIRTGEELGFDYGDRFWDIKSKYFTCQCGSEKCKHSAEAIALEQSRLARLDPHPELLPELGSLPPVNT", "assay": "Selectivity assay, G9a", "type": "biochemical", "conditions": "compound 10 μM, 3H-SAM 1 μM"}, "PRMT1": {"target": "PRMT1 (Homo sapiens, UniProt Q99873)", "sequence (Q99873 whole entry)": "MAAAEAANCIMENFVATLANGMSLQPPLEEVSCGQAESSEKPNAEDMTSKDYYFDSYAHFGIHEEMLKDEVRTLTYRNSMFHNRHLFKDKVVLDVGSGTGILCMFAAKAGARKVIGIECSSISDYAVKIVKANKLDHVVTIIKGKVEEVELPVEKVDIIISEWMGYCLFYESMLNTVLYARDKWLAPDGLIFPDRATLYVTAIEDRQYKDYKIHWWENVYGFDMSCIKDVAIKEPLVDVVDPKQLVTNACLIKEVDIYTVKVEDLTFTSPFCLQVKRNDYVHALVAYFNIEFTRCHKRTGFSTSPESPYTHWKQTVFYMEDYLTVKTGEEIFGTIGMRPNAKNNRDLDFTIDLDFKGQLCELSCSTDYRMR", "assay": "Selectivity assay, PRMT1", "type": "biochemical", "conditions": "compound 10 μM, 3H-SAM 1 μM"}, "MettL3-MettL14": {"target": "MettL3-MettL14 (Homo sapiens, UniProt Q86U44)", "sequence (Q86U44 whole entry)": "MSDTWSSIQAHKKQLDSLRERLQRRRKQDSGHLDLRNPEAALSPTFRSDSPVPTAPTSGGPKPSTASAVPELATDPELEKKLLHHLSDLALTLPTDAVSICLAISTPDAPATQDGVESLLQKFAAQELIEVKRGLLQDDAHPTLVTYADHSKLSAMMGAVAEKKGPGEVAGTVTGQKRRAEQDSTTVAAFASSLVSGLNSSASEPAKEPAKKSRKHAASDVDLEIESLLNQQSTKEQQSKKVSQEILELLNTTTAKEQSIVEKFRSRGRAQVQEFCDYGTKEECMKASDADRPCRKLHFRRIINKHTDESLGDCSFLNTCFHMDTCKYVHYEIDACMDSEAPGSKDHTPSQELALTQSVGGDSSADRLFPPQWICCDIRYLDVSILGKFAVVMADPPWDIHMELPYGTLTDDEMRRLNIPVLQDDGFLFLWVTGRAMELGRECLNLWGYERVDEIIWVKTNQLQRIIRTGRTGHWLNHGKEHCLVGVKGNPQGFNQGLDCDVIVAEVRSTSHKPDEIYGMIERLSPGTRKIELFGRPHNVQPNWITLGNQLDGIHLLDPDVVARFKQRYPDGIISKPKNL", "sequence (Q9HCE5 whole entry partner)": "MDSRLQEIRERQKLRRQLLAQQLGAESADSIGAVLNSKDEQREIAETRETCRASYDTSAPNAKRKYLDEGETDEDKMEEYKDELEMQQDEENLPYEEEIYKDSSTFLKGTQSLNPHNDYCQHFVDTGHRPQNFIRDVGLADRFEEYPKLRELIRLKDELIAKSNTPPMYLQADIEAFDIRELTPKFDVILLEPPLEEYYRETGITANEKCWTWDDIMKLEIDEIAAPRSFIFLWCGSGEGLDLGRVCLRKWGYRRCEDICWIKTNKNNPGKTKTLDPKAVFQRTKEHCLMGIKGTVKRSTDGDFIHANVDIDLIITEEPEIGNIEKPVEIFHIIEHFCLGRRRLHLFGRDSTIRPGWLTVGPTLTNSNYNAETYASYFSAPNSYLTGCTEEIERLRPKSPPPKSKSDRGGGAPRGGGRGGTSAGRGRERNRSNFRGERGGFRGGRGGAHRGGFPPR", "assay": "Selectivity assay, MettL3-MettL14", "type": "biochemical", "conditions": "[I] = 10 μM, [SAM] = 20 μM, 5 mM NaCl, or CamA conditions"}, "CcrM": {"target": "CcrM (Caulobacter vibrioides, UniProt P0CAW2)", "sequence (P0CAW2 whole entry)": "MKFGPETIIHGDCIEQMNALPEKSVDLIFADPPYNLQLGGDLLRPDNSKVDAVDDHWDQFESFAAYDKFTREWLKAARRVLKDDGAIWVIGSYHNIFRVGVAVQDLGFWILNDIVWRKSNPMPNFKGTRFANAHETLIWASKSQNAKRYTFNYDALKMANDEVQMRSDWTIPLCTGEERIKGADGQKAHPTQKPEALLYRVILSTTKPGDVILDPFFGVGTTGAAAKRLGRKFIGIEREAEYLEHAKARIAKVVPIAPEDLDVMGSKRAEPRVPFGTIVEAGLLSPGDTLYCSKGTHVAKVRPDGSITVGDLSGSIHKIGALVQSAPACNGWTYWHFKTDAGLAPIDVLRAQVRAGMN", "type": "biochemical, Caulobacter crescentus"}, "Dam": {"target": "T4, Dam (Escherichia coli, UniProt P0AEE8)", "T4 sequence (P0AEE8 1-278)": "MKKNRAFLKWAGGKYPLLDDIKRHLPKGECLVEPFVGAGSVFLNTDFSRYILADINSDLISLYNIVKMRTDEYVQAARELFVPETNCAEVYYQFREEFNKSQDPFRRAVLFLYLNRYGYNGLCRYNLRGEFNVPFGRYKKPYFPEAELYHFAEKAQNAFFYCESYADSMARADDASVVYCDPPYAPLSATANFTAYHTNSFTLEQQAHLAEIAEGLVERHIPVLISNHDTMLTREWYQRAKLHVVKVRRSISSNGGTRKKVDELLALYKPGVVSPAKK", "type": "biochemical"}, "Dnmt3a-Dnmt3L": {"target": "Dnmt3a-Dnmt3L (Mus musculus, UniProt O88508)", "type": "biochemical"}, "PCIF1": {"target": "PCIF1 (Homo sapiens, UniProt Q9H4Z3)", "sequence (Q9H4Z3 whole entry)": "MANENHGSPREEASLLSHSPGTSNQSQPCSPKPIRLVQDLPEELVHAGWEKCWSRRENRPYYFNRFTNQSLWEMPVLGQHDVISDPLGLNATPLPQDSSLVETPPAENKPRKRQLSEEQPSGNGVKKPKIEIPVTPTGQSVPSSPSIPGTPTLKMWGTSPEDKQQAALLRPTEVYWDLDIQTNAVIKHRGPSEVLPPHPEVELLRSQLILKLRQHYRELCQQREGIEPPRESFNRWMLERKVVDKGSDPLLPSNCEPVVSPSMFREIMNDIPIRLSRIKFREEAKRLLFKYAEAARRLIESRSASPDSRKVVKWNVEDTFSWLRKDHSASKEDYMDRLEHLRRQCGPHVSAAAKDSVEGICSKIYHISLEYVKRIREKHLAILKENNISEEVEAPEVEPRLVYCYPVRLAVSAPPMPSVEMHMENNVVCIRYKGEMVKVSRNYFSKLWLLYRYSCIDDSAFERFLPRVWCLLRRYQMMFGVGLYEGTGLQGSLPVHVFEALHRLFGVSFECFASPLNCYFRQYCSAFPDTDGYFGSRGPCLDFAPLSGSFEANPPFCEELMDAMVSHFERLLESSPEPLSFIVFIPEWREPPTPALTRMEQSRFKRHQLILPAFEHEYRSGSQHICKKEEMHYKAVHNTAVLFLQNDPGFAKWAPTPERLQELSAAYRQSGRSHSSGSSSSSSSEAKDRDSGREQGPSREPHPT", "type": "biochemical"}}, "data": [{"compound": "5′-methylthioadenosine [MTA, reference compound]", "values": [{"measurement": "enhanced binding, fold", "setting": "CamA [1]; compared to sinefungin", "result": "~2", "unit": "×"}, {"measurement": "stronger binding, fold", "setting": "CamA [1]; than adenosine", "result": "> 7", "unit": "×"}]}, {"compound": "OC[C@H]1O[C@@H](n2cnc3c(NCc4ccc(O)cc4)ncnc32)[C@H](O)[C@@H]1O", "note": "[Compound 3]", "values": [{"measurement": "improved IC50, fold", "setting": "CamA [2]", "result": "~2", "unit": "×"}, {"measurement": "tighter binding in KD, fold", "setting": "CamA [1]; compared to compound 2", "result": 2.6, "unit": "×"}]}, {"compound": "OC[C@H]1O[C@@H](n2cnc3c(NCCCc4ccccc4)ncnc32)[C@H](O)[C@@H]1O", "note": "[Compound 14, (2R,3S,4R,5R)-2-(Hydroxymethyl)-5-(6-((3-phenylpropyl)amino)-9H-purin-9-yl)tetrahydrofuran-3,4-diol]", "values": [{"measurement": "lower IC50 value, fold", "setting": "CamA [2]", "result": "~21", "unit": "×"}, {"measurement": "lower KD value, fold", "setting": "CamA [1]; compared to compound 1", "result": "~26", "unit": "×"}]}, {"compound": "Nc1ccc(CCCNc2ncnc3c2ncn3[C@@H]2O[C@H](CO)[C@@H](O)[C@H]2O)cc1", "note": "[Compound 15, (2R,3R,4S,5R)-2-(6-((3-(4-Aminophenyl)propyl)amino)-9H-purin-9-yl)-5-(hydroxymethyl)tetrahydrofuran-3,4-diol]", "values": [{"measurement": "enhanced binding, fold", "setting": "CamA [1]; compared to 2 and 9", "result": "9–12 ×"}]}, {"compound": "OC[C@H]1O[C@@H](n2cnc3c(NCCCCCCc4ccccc4)ncnc32)[C@H](O)[C@@H]1O", "note": "[Compound 21, (2R,3S,4R,5R)-2-(Hydroxymethyl)-5-(6-((6-phenylhexyl)amino)-9H-purin-9-yl)tetrahydrofuran-3,4-diol]", "values": [{"measurement": "relative inhibition of CamA activity", "setting": "CamA [2]", "result": "decreased the inhibition potency"}]}, {"compound": "CC(C)(C)OC(=O)NCCC1CCN(c2ncnc3c2ncn3[C@@H]2O[C@H](CO)[C@@H](O)[C@H]2O)CC1", "note": "[Compound 40, tert-Butyl-(2-(1-(9-((2R,3R,4S,5R)-3,4-dihydroxy-5-(hydroxymethyl)tetrahydrofuran-2-yl)-9H-purin-6-yl)piperidin-4-yl)ethyl)carbamate]", "values": [{"measurement": "CamA inhibition", "setting": "CamA [2]", "result": "loss of inhibition"}, {"measurement": "relative inhibition of CamA activity", "setting": "CamA [2]", "result": "loss of inhibition"}]}, {"compound": "CC(C)(C)OC(=O)N1CCC2(CCN(c3ncnc4c3ncn4[C@@H]3O[C@H](CO)[C@@H](O)[C@H]3O)CC2)C1", "note": "[Compound 41, tert-Butyl-8-(9-((2R,3R,4S,5R)-3,4-dihydroxy-5-(hydroxymethyl)tetrahydrofuran-2-yl)-9H-purin-6-yl)-2,8-diazaspiro[4.5]decane-2-carboxylate]", "values": [{"measurement": "CamA inhibition", "setting": "CamA [2]", "result": "loss of inhibition"}, {"measurement": "relative inhibition of CamA activity", "setting": "CamA [2]", "result": "loss of inhibition"}]}, {"compound": "OC[C@H]1O[C@@H](n2cnc3c(NCCCC4CCNCC4)ncnc32)[C@H](O)[C@@H]1O", "note": "[Compound 42, (2R,3S,4R,5R)-2-(Hydroxymethyl)-5-(6-((3-(piperidin-4-yl)propyl)amino)-9H-purin-9-yl)tetrahydrofuran-3,4-diol]", "values": [{"measurement": "lower potency in inhibiting CamA, fold", "setting": "CamA [2]", "result": "~10", "unit": "fold"}]}, {"compound": "OC[C@H]1O[C@@H](n2cnc3c(NC4CCCC4)ncnc32)[C@H](O)[C@@H]1O", "note": "[N^6-cyclopentyladenosine, reference compound]", "values": [{"measurement": "inhibition of control radioligand specific binding, A1AR", "setting": "[3]", "result": "completely abolished radioligand binding"}]}, {"compound": "Nc1ncnc2c1ncn2[C@@H]1O[C@H](CSCC[C@H](N)C(=O)O)[C@@H](O)[C@H]1O", "note": "[SAH, S-adenosyl-L-homocysteine, reference compound]", "values": [{"measurement": "inhibition of DOT1L", "setting": "DOT1L", "result": "exhibited measurable inhibition"}, {"measurement": "inhibition of G9a", "setting": "G9a", "result": "exhibited measurable inhibition"}, {"measurement": "inhibition of PRMT1", "setting": "PRMT1", "result": "exhibited measurable inhibition"}]}, {"compound": "CC(C)N(CCCNC(=O)Nc1ccc(C(C)(C)C)cc1)C[C@H]1O[C@@H](n2cc(Br)c3c(N)ncnc32)[C@H](O)[C@@H]1O", "note": "[SGC0946, reference compound]", "values": [{"measurement": "inhibition of CamA activity", "setting": "CamA [2]", "result": "inhibits CamA activity completely"}, {"measurement": "stronger inhibition, fold in IC50", "setting": "CamA [2]", "result": "~9", "unit": "×"}, {"measurement": "improved binding, fold in KD", "setting": "CamA [1]; vs EPZ004777", "result": "~3", "unit": "×"}]}, {"compound": "O=C(NCc1cn2cc(CNCC3CCCCC3)ccc2n1)c1cc(=O)n2ccccc2n1", "note": "[STM2457, reference compound]", "values": [{"measurement": "effect on CamA activity", "setting": "CamA [2]", "result": "had no effect on CamA activity"}, {"measurement": "inhibition of MettL3-MettL14", "setting": "MettL3-MettL14", "result": "inhibited"}]}, {"compound": "Nc1ncnc2c1ncn2[C@@H]1O[C@H](C[C@@H](N)CC[C@H](N)C(=O)O)[C@@H](O)[C@H]1O", "note": "[sinefungin, reference compound]", "values": [{"measurement": "effect on CamA activity", "setting": "CamA [2]", "result": "inhibiting CamA"}, {"measurement": "inhibition of CcrM", "setting": "CcrM", "result": "showed measurable inhibition"}, {"measurement": "inhibition of Dam", "setting": "Dam", "result": "showed measurable inhibition"}, {"measurement": "inhibition of Dnmt3a-Dnmt3L", "setting": "Dnmt3a-Dnmt3L", "result": "showed measurable inhibition"}, {"measurement": "inhibition of PCIF1", "setting": "PCIF1", "result": "showed measurable inhibition"}]}]}
